One experiment deals with T1, serotonin 1A receptor (Mus musculus, UniProt Q64264).
T1 construct: into the rectum of CD-1 (ICR) male mice (25-45 g); from tissue; host or cells: living CD-1 (ICR) male mice (in vivo)
T1 sequence (Q64264 1-421): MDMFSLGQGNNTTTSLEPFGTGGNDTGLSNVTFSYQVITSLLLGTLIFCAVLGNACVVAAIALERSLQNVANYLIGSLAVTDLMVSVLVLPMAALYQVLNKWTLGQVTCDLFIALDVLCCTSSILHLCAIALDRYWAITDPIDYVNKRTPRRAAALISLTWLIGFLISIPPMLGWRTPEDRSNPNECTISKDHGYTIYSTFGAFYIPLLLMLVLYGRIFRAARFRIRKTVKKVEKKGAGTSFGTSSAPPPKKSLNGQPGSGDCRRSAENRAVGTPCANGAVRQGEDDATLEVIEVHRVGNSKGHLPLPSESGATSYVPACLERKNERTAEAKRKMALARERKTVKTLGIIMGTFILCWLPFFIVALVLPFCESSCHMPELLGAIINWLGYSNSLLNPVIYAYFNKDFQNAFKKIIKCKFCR
In words: Antagonistic effect on serotonin 1A receptor agonist (8-OH-DPAT)-induced hypothermia in mouse. It counts as in vivo. The note with it: CD-1 (ICR) male mice; inhibition of hypothermia by 8-OH-DPAT 0.5 mg/kg sc; test substance 15 minutes before agonist. How it is done:
(1) A thermistor probe was inserted at a depth of approximately 2 cm into the rectum of CD-1 (ICR) male mice (25-45 g), so as to measure the body temperature thereof. Body temperature is decreased by subcutaneous administration of serotonin 1A receptor agonist (8-hydroxy-dipropylaminotetralin (8-OH-DPAT) 0;5 mg/kg. Since a serotonin 1A antagonist inhibits such action, the antagonistic effect of a test substance to a serotonin 1A receptor was evaluated using the inhibitory effect of the hypothermia as an index. The test results are shown in Table 2 indicated below. A test substance was administered 15 minutes before the administration of the serotonin 1A agonist. A serotonin 1A partial agonist alone decreases the body temperature, depending on the degree of the agonistic action thereof. In addition, it has a weak antagonistic effect on 8-OH-DPAT-induced hypothermia.

Another experiment concerns the target T2, 5-HT1A receptor (Sus scrofa, UniProt A0A4X1UTF5).
T2 construct: Swine hippocampus was homogenized in a 50 mM Tris-Hcl buffer; from tissue; host or cells: swine hippocampus, membrane fraction
T2 sequence (A0A4X1UTF5 1-422): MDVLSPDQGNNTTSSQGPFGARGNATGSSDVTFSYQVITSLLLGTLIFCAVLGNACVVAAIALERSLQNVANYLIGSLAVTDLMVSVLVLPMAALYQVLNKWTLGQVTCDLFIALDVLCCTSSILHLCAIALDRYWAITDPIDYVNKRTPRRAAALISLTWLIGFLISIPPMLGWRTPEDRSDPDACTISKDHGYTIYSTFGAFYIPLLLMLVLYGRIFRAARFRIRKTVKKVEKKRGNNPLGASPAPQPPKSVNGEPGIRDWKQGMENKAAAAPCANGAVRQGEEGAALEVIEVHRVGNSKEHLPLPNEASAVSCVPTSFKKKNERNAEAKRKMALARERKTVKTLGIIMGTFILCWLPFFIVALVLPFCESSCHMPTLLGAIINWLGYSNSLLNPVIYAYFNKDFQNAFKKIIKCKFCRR
The experiment is described as follows: Affinity for serotonin 1A receptor: inhibition of [3H]MPPF binding in swine hippocampal membrane fraction. The note with it: for IC50: [3H]MPPF 0.5 nM, swine hippocampal membrane, 37°C 30 min; for L/H ratio: low affinity IC50 divided by high affinity IC50, 1 or smaller = no intrinsic activity, 2 or greater = intrinsic activity. The source says: (1) The affinity of a test substance for a 5-HT1A receptor was examined by an inhibition experiment, in which the inhibitory effect of the test substance against the binding of [^3H]-4-(2′-methoxy)phenyl-1-(2′-(N-2″-pyridinyl)-p-fluorobenzamido)ethyl-piperazine (MPPF) that selectively binds to the 5-HT1A receptor in a swine hippocampal membrane fraction was examined. The 5-HT1A receptor that is a G-protein binding receptor becomes a G-protein binding state with addition of MgCl2. In contrast, it becomes a G-protein non-binding state with addition of guanylylimido diphosphate (Gpp(NH)p). […] Thus, both the affinity of a test substance to the receptor that was in a state of not binding to the G-protein and the affinity of the test substance to the receptor that was in a state of binding to the G-protein were obtained. Then, the obtained values were compared to each other, so as to estimate the level of the intrinsic activity of the test substance. Theoretically, when the value (L/H) obtained by dividing the affinity of a test substance to the receptor that is in a low affinity state (IC50 value) by the affinity of a test substance to the receptor that is in a high affinity state (IC50 value) is 1 or less, the intrinsic activity thereof is zero. The greater this value, the higher the intrinsic activity that can be obtained.
Swine hippocampus was homogenized in a 50 mM Tris-Hcl buffer (pH 7.4; hereinafter referred to as buffer A) that had been cooled on ice. The suspension was centrifuged at 40,000×g for 15 minutes. The obtained pellet was suspended in buffer solution A, and the thus obtained solution was then centrifuged at 40,000×g for 15 minutes. The same operation was repeated 2 or 3 times. The finally obtained pellet was suspended in a buffer solution A in an amount 10 times the wet weight of the swine hippocampus, so as to obtain a membrane fraction. The obtained membrane fraction was stored at −80° C. until use.
A mixture (0.5 ml) used for incubation comprised an appropriate amount of the membrane fraction, a test substance with a desired concentration, MgCl2 (final concentration: 10 mM) or Gpp(NH)p (final concentration: 1 mM), [^3H]MPPF (final concentration: 0.5 nM), dimethyl sulfoxide (final concentration: 1% (v/v)), and a 50 mM Tris-Hcl buffer (pH 7.4). The reaction was initiated with addition of the membrane fraction, and the mixture was incubated at 37° C. for 30 minutes. After completion of the incubation, the mixture was subjected to vacuum filtration with a glass filter, using Cell Harvester. The filter was washed with buffer solution A that had been cooled on ice. Thereafter, radioactivity binding to the receptor was measured with a liquid scintillation counter. Non-specific binding was defined as binding detected in the presence of 10 μM WAY-100,635.

Where [1] appears, read: receptor in high affinity (G-protein binding, MgCl2 10 mM) state, read-out: High affinity IC50.
The mark [2] stands for this setting: receptor in low affinity (G-protein non-binding, Gpp(NH)p 1 mM) state, read-out: Low affinity IC50.

Read-outs that look alike come from different tables or passages of the source.

For `COc1ccc2c(c1CCN1CCC(n3ccc4ccc(C(N)=O)cc43)CC1)CCC2O` (stereo not drawn) [Compound 49, 1-{1-[2-(1-hydroxy-5-methoxyindan-4-yl)ethyl]piperidin-4-yl}-1H-indole-6-carboxamide], the ED50 at serotonin 1A receptor is reported as 0.28 mg/kg, sc. The IC50 on 5-HT1A receptor (setting [1]) was 0.22 nM; at 5-HT1A receptor (setting [2]) it was 0.27 nM. The L/H ratio at 5-HT1A receptor is 1.2.

On to `COc1ccc2c(c1CCN1CCC(n3ccc4ccc(C(N)=O)cc43)CC1)OCC(C)(C)C2=O` [Compound 37, 1-{1-[2-(7-methoxy-3,3-dimethyl-4-oxochroman-8-yl)ethyl]piperidin-4-yl}-1H-indole-6-carboxamide], for which the results for the half-inhibitory concentration (IC50) at 5-HT1A receptor (setting [1]) and at 5-HT1A receptor (setting [2]) were 0.55 nM and 0.39 nM, respectively. Moreover, the L/H ratio on 5-HT1A receptor stood at 0.7.

Regarding `COc1cc2c(cc1CCN1CCC(n3ccc4ccc(C(N)=O)cc43)CC1)NC(=O)CC2` [Compound 56, 1-{1-[2-(6-methoxy-2-oxo-1,2,3,4-tetrahydroquinolin-7-yl)ethyl]piperidin-4-yl}-1H-indole-6-carboxamide], the half-maximal inhibitory concentration (IC50) at 5-HT1A receptor (setting [1]) amounted to 0.07 nM; at 5-HT1A receptor (setting [2]) it was 0.04 nM. Besides, the L/H ratio at 5-HT1A receptor stood at 0.5.

In the case of `CON=C1CCc2c(CCN3CCC(n4ccc5ccc(C(N)=O)cc54)CC3)c(OC)cc(OC)c21` [Compound 11, 1-{1-[2-(5,7-dimethoxy-1-methoxyiminoindan-4-yl)ethyl]piperidin-4-yl}-1H-indole-6-carboxamide], the IC50 worked out at 0.22 nM on 5-HT1A receptor (setting [1]) and 0.1 nM at 5-HT1A receptor (setting [2]). In addition, the L/H ratio at 5-HT1A receptor was 0.4.

As for `COc1cc2c(cc1CCN1CCC(n3ccc4ccc(C(N)=O)cc43)CC1)C(O)CC2` (stereo not drawn) [Compound 50, 1-{l-[2-(3-hydroxy-6-methoxyindan-5-yl)ethyl]piperidin-4-yl}-1H-indole-6-carboxamide], the half-maximal inhibitory concentration (IC50) on 5-HT1A receptor (setting [1]) and at 5-HT1A receptor (setting [2]) was 0.21 nM each time. Further, at 5-HT1A receptor, the L/H ratio is 1.

Consider `CNC(=O)c1ccc2ccn(C3CCN(CCc4cc5nc(C)oc5cc4OC)CC3)c2c1` [Compound 16, 1-{1-[2-(6-methoxy-2-methylbenzoxazol-5-yl)ethyl]piperidin-4-yl}-N-methyl-1H-indole-6-carboxamide], for which the IC50 at 5-HT1A receptor (setting [1]) is 0.18 nM; on 5-HT1A receptor (setting [2]) it was 0.17 nM. Also, the L/H ratio at 5-HT1A receptor is 0.9.

Consider `COc1cc2c(cc1CCN1CCC(n3ccc4ccc(C(N)=O)cc43)CC1)C(=O)CCCO2` [Compound 12, 1-{1-[2-(8-methoxy-5-oxo-2,3,4,5-tetrahydrobenzo[b]oxepin-7-yl)ethyl]piperidin-4-yl}-1H-indole-6-carboxamide], for which the figures for the half-inhibitory concentration (IC50) at 5-HT1A receptor (setting [1]) and on 5-HT1A receptor (setting [2]) were 0.17 nM and 0.16 nM, respectively. Besides, the L/H ratio at 5-HT1A receptor is on record as 0.9.

For `CNC(=O)c1ccc2ccn(C3CCN(CCc4c(OC)ccc5nc(C)oc45)CC3)c2c1` [Compound 15], the figures for the IC50 at 5-HT1A receptor (setting [1]) and at 5-HT1A receptor (setting [2]) were 0.72 nM and 0.61 nM, respectively. The L/H ratio at 5-HT1A receptor is 0.8.

For `COc1cc2c(cc1CCN1CCC(n3ccc4ccc(C(N)=O)cc43)CC1)N(C)C(=O)OC2` [Compound 39, 1-{1-[2-(6-methoxy-methyl-oxo-1,4-dihydro-2H-benz[d][1,3]oxazin-7-yl)ethyl]piperidin-4-yl}-1H-indole-6-carboxamide], the 50% inhibitory concentration (IC50) on 5-HT1A receptor (setting [1]) is 0.13 nM; at 5-HT1A receptor (setting [2]) it was 0.09 nM.

For `CON=C1CCCc2c1ccc(OC)c2CCN1CCC(n2ccc3ccc(C(N)=O)cc32)CC1` [Compound 19, 1-{1-[2-(2-methoxy-5-methoxyimino-5,6,7,8-tetrahydronaphthalen-1-yl)ethyl]piperidin-4-yl}-1H-indole-6-carboxamide], the concentration for half-maximal inhibition (IC50) at 5-HT1A receptor (setting [1]) came out at 1.1 nM; on 5-HT1A receptor (setting [2]), 0.69 nM. Besides, the L/H ratio on 5-HT1A receptor was found to be 0.6.

In the case of `COc1ccc2cccnc2c1CCN1CCC(n2ccc3ccc(C(N)=O)cc32)CC1` [Compound 29, 1-{1-[2-(7-methoxyquinolin-8-yl)ethyl]piperidin-4-yl}-1H-indole-6-carboxamide], the IC50 at 5-HT1A receptor (setting [1]) came to 0.34 nM; on 5-HT1A receptor (setting [2]), 0.3 nM. Moreover, the L/H ratio on 5-HT1A receptor worked out at 0.9.

On to `COc1ccc2c(c1CCN1CCC(n3ccc4ccc(C(N)=O)cc43)CC1)OC1(CCCC1)CC2=O` [Compound 41, 1-{1-[2-(7-methoxy-4-oxo-spiro(chroman-2,1′-cyclopentan)-8-yl)ethyl]piperidin-4-yl}-1H-indole-6-carboxamide], for which the concentration for half-maximal inhibition (IC50) at 5-HT1A receptor (setting [1]) was found to be 0.2 nM; at 5-HT1A receptor (setting [2]), 0.14 nM. Further, on 5-HT1A receptor, the L/H ratio came to 0.7.

`COCC1(C)CC(=O)c2ccc(OC)c(CCN3CCC(n4ccc5ccc(C(N)=O)cc54)CC3)c2O1` (stereo not drawn) [Compound 40, 1-{1-[2-(7-methoxy-2-methoxymethyl-2-methyl-4-oxochroman-8-yl)ethyl]piperidin-4-yl}-1-H-indole-6-carboxamide]: the results for the 50% inhibitory concentration (IC50) on 5-HT1A receptor (setting [1]) and on 5-HT1A receptor (setting [2]) were 0.18 nM and 0.17 nM, respectively. For the same molecule, the L/H ratio on 5-HT1A receptor worked out at 0.9.

As to `CON=C1CCCOc2cc(OC)c(CCN3CCC(n4ccc5ccc(C(N)=O)cc54)CC3)cc21` [Compound 13, 1-{1-[2-(8-methoxy-5-methoxyimino-2,3,4,5-tetrahydrobenzo[b]oxepin-7-yl)ethyl]piperidin-4-yl}-1H-indole-6-carboxamide], the concentration for half-maximal inhibition (IC50) came to 0.32 nM at 5-HT1A receptor (setting [1]) and 0.22 nM at 5-HT1A receptor (setting [2]). In addition, the L/H ratio at 5-HT1A receptor was determined as 0.7.

For `COc1ccc2c(c1CCN1CCC(n3ccc4ccc(C(N)=O)cc43)CC1)CC(C)(C)C2=O` [Compound 14, 1-{1-[2-(5-methoxy-2,2-dimethyl-1-oxoindan-4-yl)ethyl]piperidin-4-yl}-1H-indole-6-carboxamide], the IC50 turned out to be 0.46 nM at 5-HT1A receptor (setting [1]) and 0.34 nM at 5-HT1A receptor (setting [2]). Also, the L/H ratio at 5-HT1A receptor came out at 0.7.

With `COc1ccc2c(c1CCN1CCC(n3ccc4ccc(C(N)=O)cc43)CC1)OC1(CCOCC1)CC2=O` [Compound 43, 1-{1-[2-(7-methoxy-4-oxo-spiro(chroman-2,4′-oxan)-8-yl)ethyl]piperidin-4-yl}-1H-indole-6-carboxamide], the figures for the IC50 on 5-HT1A receptor (setting [1]) and on 5-HT1A receptor (setting [2]) were 0.22 nM and 0.15 nM, respectively. Besides, the L/H ratio on 5-HT1A receptor is 0.7.

Values taken from US20050256103A1, “Indole derivative having piperidine ring” (Eisai Co., Ltd., priority 2004, published 2005).
